Data on three compounds can be found in article PMC8041674 (European Journal of Nuclear Medicine and Molecular Imaging, 2020).

The nature of data set [1]: Pharmacokinetic parameters of pridopidine in plasma. Particulars: at steady state, 0 to 12 h after oral administration of pridopidine.
Data set [2] addresses T1, sigma-1 receptor (S1R) (Homo sapiens, UniProt Q99720). Nature of the data set: [^18F] fluspidine distribution volume (S1R availability), one-tissue compartment model. The arrangement: from tissue; host or cells: living human brain of male healthy volunteers and Huntington disease patients (in vivo PET); VND, non-displaceable distribution volume: unit not given here. Format: in vivo. The text has this: Application of the linear regression

Data set [3] deals with T1, sigma-1 receptor (S1R). Kind of data set: Test-retest [^18F] fluspidine PET substudy. It counts as in vivo. Set-up: from tissue; host or cells: living human brain of male healthy volunteers and Huntington disease patients (in vivo PET). Particulars: two HVs, no pridopidine, VT of first and second PET scan. Here is the method: The test-retest variability of [18F]Fluspidine binding (VT) was estimated for two HVs (age 27.5±3.5 yrs; body weight 67.0±11.3 kg) from PET data acquired at the same time point of the day within 11 and 14 weeks. No pridopidine was administered before imaging. The test-retest variability was calculated using linear regression of the first and second PET scan. Test-retest analysis was performed to calculate the uncertainty of the RO estimate. As estimated by the slope values of the linear regression, the variability was 0.887 (11.3%; subject #1) and 1.008 (0.8%; subject #2)(Supplementary Fig. S7; Supplementary

Another data set deals with plasma proteins. Nature of the data set: [^18F] fluspidine binding to plasma proteins (ultracentrifugation). Particulars: human, read-out: fraction of free tracer in plasma, not bound to plasma proteins. Format: in vitro ADME.
In data set [4] the test system is sigma-1 receptor (S1R) compared with dopamine D3 receptor (D3R). Particulars: in vitro and in vivo animal studies; cited from earlier work.
For a further data set, the system named is S1R. Particulars: behaviorally effective doses, [^11C]SA4503 PET; cited from earlier work.
In data set [5] the target is T1, sigma-1 receptor (S1R). Nature of the data set: in vivo. Particulars: for Emax: standard error in brackets. Here is the method: Two models with Hill coefficient n fixed to 1 or optimized as a third parameter were investigated and characterized by the Akaike information criterion (AIC). Nonlinear parameter estimation was performed with Mathematica12 (Wolfram Research).

Data set [6] deals with Huntington disease patients. Particulars: HD patients, 45 mg bid, week 52, PRIDE-HD; cited from earlier work.
Data set [7] addresses T1, sigma-1 receptor (S1R). Particulars: for mean RO (S1R): 90 mg pridopidine; for RO (%), sigma-1 receptor occupancy: PET 2 h post dose. From the text: This PET study consists of three PET substudies: the [^18F] fluspidine substudy (HVs, n = 11, HD, n = 3), the [^18F] fallypride substudy (HVs, n = 4), and the test-retest [^18F] fluspidine substudy (HVs, n = 2). All subjects were assigned to only one PET substudy. Subjects in the [^18F] fluspidine or [^18F] fallypride substudies were investigated twice within 4 weeks at the same time point of the day.
The doses were not established a priori but were based on the receptor occupancy results from previous cohort subjects. […] Because we observed near to complete S1R occupancy with 90 mg, we reduced the next dose to approximately one fourth. […] The total distribution volume VT of [^18F] fluspidine in the brain was computed from the corresponding TACs and the metabolite-corrected arterial input function using a one-tissue compartment model (1TCM).
The receptor occupancy (RO) is defined as the drug treatment-induced reduction of the receptor density. The values of RO are between 0 (no receptor occupancy) and 1 (100% receptor occupancy). […] Here, it is assumed that the non-displaceable distribution volume VND and the receptor occupancy RO have the same value in all brain regions. Application of the linear regression
1 VTPET1−VTPET2=ROVTPET1−VND yielded VND and RO. From the Lassen plot follows
2 RO=1−VTPET2−VND/VTPET1−VND

The subject of data set [8] is sigma-1 receptor (S1R) compared with D2R. Particulars: in vitro and in vivo animal studies; cited from earlier work.
A further data set concerns D2/D3R. Particulars: behaviorally effective doses, [^11C] Raclopride PET; cited from earlier work.
Where [9] appears, read: model plasma concentration Cavg2-4h (ng/ml), three-parameter Hill equation.
Setting [10] is: model plasma concentration Cavg2-4h (ng/ml), two-parameter Hill equation (n = 1).
[11] abbreviates: model weight adjusted dose (mg/kg), three-parameter Hill equation.
The mark [12] stands for this setting: model weight adjusted dose (mg/kg), two-parameter Hill equation (n = 1).

“And” between values parts separate entries of the source, which are not always exact repeats. Equal entries are not always repeated. Where two headings read alike, the source gives them in different places.

T1 sequence (Q99720 whole entry): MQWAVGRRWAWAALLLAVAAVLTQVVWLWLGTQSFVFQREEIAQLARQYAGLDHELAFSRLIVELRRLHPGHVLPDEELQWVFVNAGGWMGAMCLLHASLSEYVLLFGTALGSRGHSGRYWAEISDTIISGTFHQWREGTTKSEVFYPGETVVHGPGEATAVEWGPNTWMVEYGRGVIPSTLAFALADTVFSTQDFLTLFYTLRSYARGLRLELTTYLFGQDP

Regarding `CS(=O)(=O)c1cccc(C2CCNCC2)c1` [TV45065], in data set [1], the “concentration of metabolite in plasma relative to unchanged pridopidine concentration” value is reported as “less than 10%”.
`FCC[C@@H]1OC2(CCN(Cc3ccccc3)CC2)c2ccccc21` [[^18F] fluspidine, (S)-(-)-[^18F] Fluspidine]: the “mean VT at baseline PET” value on sigma-1 receptor (S1R) [2] (HD (n = 3), cerebellum) was found to be 23.52 ± 12.66; on sigma-1 receptor (S1R) [2] (HD (n = 3), corpus callosum), 8.89 ± 2.75; on sigma-1 receptor (S1R) [2] (HD (n = 3), frontal cortex) it was 16.32 ± 6.76; on sigma-1 receptor (S1R) [2] (HD (n = 3), medulla), 14.75 ± 7.28; on sigma-1 receptor (S1R) [2] (HD (n = 3), midbrain) it was 16.46 ± 7.73; on sigma-1 receptor (S1R) [2] (HD (n = 3), pons), 16.10 ± 8.74. The “mean VT at baseline PET” value was 13.59 ± 5.98 at sigma-1 receptor (S1R) [2] (HD (n = 3), striatum); 26.91 ± 4.49 at sigma-1 receptor (S1R) [2] (HVs (n = 11), cerebellum, mean ± SD); 11.69 ± 2.40 at sigma-1 receptor (S1R) [2] (HVs (n = 11), corpus callosum); 21.38 ± 3.37 on sigma-1 receptor (S1R) [2] (HVs (n = 11), frontal cortex); 16.63 ± 2.72 at sigma-1 receptor (S1R) [2] (HVs (n = 11), medulla); 19.31 ± 2.70 at sigma-1 receptor (S1R) [2] (HVs (n = 11), midbrain). Further, the “mean VT at baseline PET” value stood at 19.13 ± 3.45 on sigma-1 receptor (S1R) [2] (HVs (n = 11), pons) and 19.43 ± 2.95 at sigma-1 receptor (S1R) [2] (HVs (n = 11), striatum). Further, the “VND, non-displaceable distribution volume” value at sigma-1 receptor (S1R) [2] (Lassen plot, baseline vs post-pridopidine PET, patients with Huntington disease, individual subjects) is 4.26 and 3.68 and 4.42. Also, the “test-retest variability, slope of the linear regression” value at sigma-1 receptor (S1R) [3] was 0.887 and 1.008. Further, the fraction unbound with plasma proteins worked out at 0.023 ± 0.007.
For the compound `CCCN1CCC(c2cccc(S(C)(=O)=O)c2)CC1` [pridopidine], the “fold higher affinity towards S1R compared with D3R” value in data set [4] is on record as ~ 30 fold. Further, the “S1R occupancy in rat brains” value in the data set on S1R was “high S1R occupancy”. Besides, the Emax was 0.90 (0.01) on sigma-1 receptor (S1R) [5] (model dose (mg), three-parameter Hill equation, healthy volunteers); 0.93 (0.02) on sigma-1 receptor (S1R) [5] (model dose (mg), two-parameter Hill equation (n = 1), healthy volunteers); 0.89 (0.02) on sigma-1 receptor (S1R) [5] (setting [9]); 0.91 (0.02) on sigma-1 receptor (S1R) [5] (setting [10]); 0.89 (0.02) on sigma-1 receptor (S1R) [5] (setting [11]); 0.93 (0.02) at sigma-1 receptor (S1R) [5] (setting [12]). The EC90 on sigma-1 receptor (S1R) [5] (setting [9]) was 0.018 µg/mL and 0.01757 µg/mL; on sigma-1 receptor (S1R) [5] (setting [10]) it was 0.028 µg/mL and 0.02852 µg/mL; at sigma-1 receptor (S1R) [5] (setting [11]) it was 0.084 mg/kg; on sigma-1 receptor (S1R) [5] (setting [12]), 0.135 mg/kg. The Hill coefficient (usually a measure of the steepness of the concentration-response curve) at sigma-1 receptor (S1R) [5] (three-parameter model, all situations (concentration, dose, adjusted weight dose)) is given as over 1. Moreover, the “decline from baseline in total functional capacity (TFC) compared with placebo” value in data set [6] is “significantly less decline from baseline”. In addition, the “mean RO (S1R)” value on sigma-1 receptor (S1R) [7] (HD patients) is recorded as 87.4%; on sigma-1 receptor (S1R) [7] (healthy volunteers), 91.2%. Besides, the “RO (%), sigma-1 receptor occupancy” value is 17.6% on sigma-1 receptor (S1R) [7] (healthy volunteer (n = 1), single dose 0.5 mg); 41.8% on sigma-1 receptor (S1R) [7] (healthy volunteer (n = 1), single dose 1 mg); 87.2% on sigma-1 receptor (S1R) [7] (healthy volunteer, individual subject, single dose 45 mg); 76.8% and 79.2% at sigma-1 receptor (S1R) [7] (healthy volunteers, individual subjects, single dose 5 mg); 84.1% and 89.2% and 86.7% on sigma-1 receptor (S1R) [7] (healthy volunteers, individual subjects, single dose 22.5 mg); 88.8% and 89.1% and 95.7% at sigma-1 receptor (S1R) [7] (healthy volunteers, individual subjects, single oral dose 90 mg). Also, the “RO (%), sigma-1 receptor occupancy” value on sigma-1 receptor (S1R) [7] (patients with Huntington disease, individual subjects, single dose 90 mg) was 80.4% and 93.2% and 88.5%. Moreover, at sigma-1 receptor (S1R) [7] (healthy volunteers, 5 mg pridopidine), the “RO (S1R), mean” value came to 78.0 ± 1.7%. In addition, the “fold higher affinity towards S1R compared with D2R” value in data set [8] is listed as ~ 100 fold. The “D2/D3R occupancy in rat brains” value with D2/D3R is reported as “low D2/D3R occupancy”.
